Data from patent US4732910A, “Enzyme Inhibiting substance” (Toyo Jozo Co, Ltd., priority 1985, dated 1988).
“And” between values parts separate entries of the source, which are not always exact repeats. Identical values can stand only once. Like-named read-outs stand apart in the source and are kept apart here.

How the values were obtained:
Papain = target: T1, Papain (Carica papaya, UniProt P00784); assay: Papain inhibitory activity (casein hydrolysis); format: biochemical
T1 construct: purchased Boehringer Mannheim AG
T1 sequence (P00784 134-345): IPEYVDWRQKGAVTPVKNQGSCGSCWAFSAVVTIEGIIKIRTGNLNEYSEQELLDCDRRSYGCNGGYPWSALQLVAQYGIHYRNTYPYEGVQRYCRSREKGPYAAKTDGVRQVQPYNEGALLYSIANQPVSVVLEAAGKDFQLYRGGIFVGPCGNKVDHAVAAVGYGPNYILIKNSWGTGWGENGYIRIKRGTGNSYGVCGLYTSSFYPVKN
Method: (§1) The 0.2 ml of a solution of papain (300 μg/ml, Boeringer Mannheim AG), 0.25 ml of 40 mM cysteine solution dissolved in 5 mM EDTA solution adjusted pH to 6.8 with sodium hydroxide and 0.55 ml of the 50 mM phosphate buffer (pH 6.8) with or without inhibitor were mixed and incubated at 40° C. for 10 min., followed by adding 4 ml of 1.5% casein solution dissolved in a 50 mM phosphate buffer (pH 6.8) to carry out a reaction at 40° C. for 15 min. Then, 2 ml of 1.1M trichloroacetic acid is added to terminate the reaction. After being left to stand at room temperature for one hour, the reaction mixture is centrifuged at 3500 rpm for 10 minutes and absorbance (S) of the trichloroacetic acid soluble fraction at 280 mμ is measured. Similarly, absorbance (B) at 280 mμ is measured when no inhibitors are added. The percent inhibition was calculated by the following formula: […]
(§2) The amount of inhibitor for 50% inhibition was expressed as IC50.

[1] = test system: production of IgE antibody; assay: Activity on the production of IgE antibody in mice (PCA reaction); format: in vivo, BDF1 strain male mice; settings: for IgE antibody titers (PCA antibody titers), individual mice: 200 mg/Kg ip 2 hours before immunization with egg albumin + aluminum hydroxide, blood after 14 days, reciprocal of maximum dilution with positive blueing in rats; for Effect on production of IgE antibody (in words): mice, 200 mg/Kg ip
Method: Activity on the production of IgE antibody was examined by the following method.
Estatin A or Estatin B dissolved in physiological saline were administered ip to BDF1 strain male mice weighing 18-22 g (one group 5 mice) at a dose of 200 mg/Kg. Control group (10 mice) received only physiological saline. After 2 hours from the administration, 4 mg of aluminum hydroxide together with 10 μg of egg albumin was administered ip to immunize them. After 14 days from the immunization, blood was collected and IgE antibody titer was assayed by PCA reaction (See "International Archives of Allergy and Applied Immunology" Vol. 48, Page 16, 1975.).
That is, serum samples were serially diluted and injected intradermally into the back of Wistar strain male rats weighing 200-250 g. After 48 hours, 1 ml of 1% Evans blue in physiological saline containing 2 mg of egg albumin was administered iv and rats were killed 30 min. later, and blueing of saline were observed. […] The results are shown below. ______________________________________ PCA Antibody TITERS Test drugs IgE antibody titers ______________________________________ Estatin A <100 <100 <100 <100 <100 Estatin B <100 <100 <100 <100 100 Control 400 800 800 800 800 800 1600 1600 1600 3200 ______________________________________

mice = assay: Acute toxicity; format: in vivo; settings: ip, 400 mg/Kg
[2] = test system: production of IgG antibody; assay: Activity on the production of IgG antibody in mice (passive hemagglutination test); format: in vivo, BDF1 strain male mice; settings: for IgG antibody titers, individual mice: 200 mg/Kg ip 2 hours before immunization with egg albumin + Freund complete adjuvant, blood after 2 weeks, passive hemagglutination; for Effect on production of IgG antibody (in words): mice, 200 mg/Kg ip
Method: Activity on the production of IgG antibody was examined by the following method.
Estatin A or Estatin B were administered ip to BDF1 strain male mice weighing 18-22 g (one group 5 mice) at a dose of 200 mg/Kg. Control group (10 mice) received only physiological saline.
After 2 hours from the administration each mouse was immunized by intradermal injection with 0.2 mg/0.1 ml of egg albumin together with equal volume of Freund complete adjuvant into the 2 separate sites of the back of the mice. After 2 weeks blood was collected and antibody titers were determined by passive hemagglutination test using glutalaldehyde as coupling reajent. The results are shown below. ______________________________________ Test drugs IgG antibody titers ______________________________________ Estatin A 12800, 6450, 25600 12800, 12800 Estatin B 6400, 25600, 12800 25000, 12800 Control 12800, 25600, 25600, 12800, 6450 12800, 12800, 12800, 12800, 12800 ______________________________________

α-Chymotrypsin = target: T2, α-Chymotrypsin (Bos taurus, UniProt P00766); assay: α-Chymotrypsin inhibitory activity (casein hydrolysis); format: biochemical
T2 construct: purchased PL Biochemical Co
Source text: (§3) The enzyme reactions were all measured according to the prescribed methods.
(§4) (α-chymotrypsin and pepsin used are those manufactured by PL Biochemical Co., and trypsin is that manufactured by Wako Junyaku Co.)

Trypsin = Trypsin inhibitory activity (casein hydrolysis); format: biochemical; settings: enzyme 1000 μg protein; substrate casein
Source text: as §3, §4

Stability = settings: stable at a pH of
Bromelain = target: T3, Bromelain (Ananas comosus, UniProt P14518); assay: Bromelain inhibitory activity (casein hydrolysis); format: biochemical
T3 construct: purchased Boehringer Mannheim AG
T3 sequence (P14518 1-212): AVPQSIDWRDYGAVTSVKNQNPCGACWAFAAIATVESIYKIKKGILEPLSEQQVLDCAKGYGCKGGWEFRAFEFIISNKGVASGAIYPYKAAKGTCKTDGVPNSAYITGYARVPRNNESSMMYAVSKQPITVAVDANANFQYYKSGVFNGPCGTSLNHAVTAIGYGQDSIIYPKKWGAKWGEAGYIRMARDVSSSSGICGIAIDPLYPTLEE
Method: as §1, §2
(§5) Inhibitory activities against ficin (protein amount: 60 μg, manufactured by Boehringer Mannheim AG) and bromelain (protein content: 100 μg, manufactured by Boehringer Mannheim AG) are also measured by the similar method.

Pepsin = target: T4, Pepsin (Sus scrofa, UniProt P00791); assay: Pepsin inhibitory activity (casein hydrolysis); format: biochemical
T4 construct: purchased PL Biochemical Co
T4 sequence (P00791 60-385): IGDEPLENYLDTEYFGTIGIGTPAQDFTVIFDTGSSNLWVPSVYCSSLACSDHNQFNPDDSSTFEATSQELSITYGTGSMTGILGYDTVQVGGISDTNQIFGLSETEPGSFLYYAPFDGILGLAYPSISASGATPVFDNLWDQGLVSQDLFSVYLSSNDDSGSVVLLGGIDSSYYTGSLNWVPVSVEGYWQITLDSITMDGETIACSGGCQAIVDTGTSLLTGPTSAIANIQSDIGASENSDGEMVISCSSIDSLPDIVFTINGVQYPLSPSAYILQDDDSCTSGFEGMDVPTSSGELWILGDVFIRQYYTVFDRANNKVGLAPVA
Source text: as §3, §4

Ficin = Ficin inhibitory activity (casein hydrolysis); format: biochemical; settings: enzyme 60 μg protein; substrate casein
Method: as §1, §2, §5

Solubility = format: physicochemical
Source text: Insoluble in and pyridine.

| SMILES | IC50 (Papain; enzyme 60 μg protein, substrate casein, read-out: IC50 concentration, Papain (converted)) [µM] | IC50 (Papain) [µM] | IgE antibody titers (PCA antibody titers), individual mice [1] | Effect on production of IgE antibody (in words) [1] | Acute toxicity (mice) | IgG antibody titers, individual mice [2] | Effect on production of IgG antibody (in words) [2] | IC50 (α-Chymotrypsin; enzyme 200 μg protein, substrate casein, read-out: IC50 concentration, α-Chymotrypsin) [µM] | IC50 concentration, Trypsin (Trypsin) [mg/L] | Stability: pH at which stable (Stability) | IC50 (Bromelain; enzyme 100 μg protein, substrate casein, read-out: IC50 concentration, Bromelain (converted)) [µM] | IC50 (Pepsin; enzyme 100 μg protein, substrate casein, read-out: IC50 concentration, Pepsin) [µM] | IC50 concentration, Ficin (Ficin) [mg/L] | Solubility in benzene, chloroform, ethyl acetate and petroleum ether (Solubility) | Solubility in water, acetic acid, dimethyl sulfoxide and pyridine (Solubility) | IC50 (α-Chymotrypsin) [µM] | IC50 (Bromelain) [µM] | IC50 (Pepsin) [µM] |
| --- | --- | --- | --- | --- | --- | --- | --- | --- | --- | --- | --- | --- | --- | --- | --- | --- | --- | --- |
| N=C(N)NCCCCNC(=O)[C@H](Cc1ccccc1)NC(=O)C1OC1C(=O)O (mixture of isomers) [N-[N-(D- and L-3-trans-carboxyoxiran-2-carbonyl-L-phenylalanyl]agmatine] | 0.0741 | – | – | – | – | – | – | – | – | – | – | – | – | – | – | – | – | – |
| N=C(N)NCCCCNC(=O)[C@H](Cc1ccccc1)NC(=O)[C@H]1O[C@@H]1C(=O)O [Estatin A, N-[N-(L-3-trans-carboxyoxiran-2-carbonyl)-L-phenylalanyl]agmatine] | – | 0.0664 | < 100 | inhibit the production of IgE antibody | no toxic effect | 12800 (3×) and 6450 and 25600 | do not inhibit the production of IgG antibody | > 128 | > 50 | 2-9 | 0.37 | > 128 | 0.039 | Insoluble | Soluble | – | – | – |
| N=C(N)NCCCCNC(=O)[C@H](Cc1ccc(O)cc1)NC(=O)[C@H]1O[C@@H]1C(=O)O [Estatin B, N-[N-(L-3-trans-carboxyoxiran-2-carbonyl)-L-tyrosyl]agmatine] | – | 0.0663 | < 100 (4×) and 100 | inhibit the production of IgE antibody | no toxic effect | 6400 and 25600 and 12800 (2×) and 25000 | do not inhibit the production of IgG antibody | – | > 50 | – | – | – | 0.041 | Insoluble | Soluble | > 123 | 0.356 | > 123 |
